Structures are written as SMILES.

The assay concerns the target T1, Tissue alpha-L-fucosidase (Homo sapiens, UniProt P04066).
T1 sequence (P04066 whole entry): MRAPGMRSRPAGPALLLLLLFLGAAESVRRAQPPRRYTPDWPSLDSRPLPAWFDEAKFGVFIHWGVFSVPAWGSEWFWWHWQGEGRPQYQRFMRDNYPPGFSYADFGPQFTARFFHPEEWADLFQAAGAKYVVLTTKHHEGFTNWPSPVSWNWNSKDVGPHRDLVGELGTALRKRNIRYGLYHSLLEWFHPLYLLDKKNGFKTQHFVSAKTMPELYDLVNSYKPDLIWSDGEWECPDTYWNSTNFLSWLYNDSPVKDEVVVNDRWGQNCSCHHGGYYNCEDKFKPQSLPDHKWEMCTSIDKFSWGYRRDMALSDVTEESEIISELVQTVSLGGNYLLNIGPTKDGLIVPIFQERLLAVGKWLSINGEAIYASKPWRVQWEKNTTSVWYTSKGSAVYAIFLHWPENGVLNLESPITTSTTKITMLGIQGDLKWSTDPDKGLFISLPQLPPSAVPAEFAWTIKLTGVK
Kind of assay: Inhibitory activity against alpha-L-fucosidase in human placenta at PH of 6.5; Mixed Inhibition type.

Regarding `CC(=O)NCSC1OC(C)C(O)C(O)C1O` (stereo unspecified), the affinity corresponds to a Ki of 3.9 µM.

Broadly, the Ki is a dissociation constant, usually derived from enzyme kinetics or from competition with a known ligand.
